Data set [1] is described as follows: Stability in human serum assessed as compound remaining at 1 mg/ml measured after 12 hrs by HPLC analysis. The data set is classed as ADME, cell-free. The conditions noted are these: read-out: Stability.
Data set [2] deals with Pre-Osteoblast. The data set is described as follows: Induction of osteoblast differentiation in C57BL/6 mouse Pre-Osteoblast cells assessed as increase in bone mineralization by measuring increase in area of calcium nodules measured after 14 days by Alizarin Red S staining based analysis. The data set is classed as functional, cell-based. The conditions noted are these: time 14.0 day.

A short description of data set [3]: Induction of osteoblast differentiation in C57BL/6 mouse Pre-Osteoblast cells assessed as fold increase in ephrinB2 protein expression at 200 nM measured after 72 hrs by Western blot analysis relative to control. The class given is functional. (In general: In western blotting, separated proteins are transferred to a membrane and probed.)
Data set [4] in a line: Induction of osteoblast differentiation in C57BL/6 mouse Pre-Osteoblast cells assessed as fold increase in ephrinB2 protein expression at 100 nM measured after 72 hrs by Western blot analysis relative to control. The data set is classed as functional.
Data set [5] can be described thus: Induction of osteoblast differentiation in C57BL/6 mouse Pre-Osteoblast cells assessed as fold increase in ephrinB2 protein expression at 50 nM measured after 72 hrs by Western blot analysis relative to control. The class given is functional.
In data set [6] the test system is Pre-Osteoblast. The data set is described as follows: Induction of osteoblast differentiation in C57BL/6 mouse Pre-Osteoblast cells assessed as increase in bone mineralization by measuring increase in red calcium nodules measured after 14 days by Alizarin Red S staining based analysis. The class given is functional, cell-based. The conditions noted are these: time 14.0 day.

For data set [7], the system named is Mus musculus. The data set is described as follows: Anti-osteoporosis activity in ovariectomized C57BL/6J mouse model assessed as increase in bone volume percent in femur at 20 microg/kg, sc administered 3 times a week for 8 weeks by micro-CT analysis. The class given is functional, organism-based. The conditions noted are these: dose 20.0 µg/kg.
Data set [8] relates to Mus musculus. The data set is described as follows: Anti-osteoporosis activity in ovariectomized C57BL/6J mouse model assessed as increase in bone surface density in femur at 20 microg/kg, sc administered 3 times a week for 8 weeks by micro-CT analysis. The data set is classed as functional, organism-based. The conditions noted are these: dose 20.0 µg/kg.
In data set [9] the test system is Pre-Osteoblast. In words: Induction of osteoblast differentiation in C57BL/6 mouse Pre-Osteoblast cells assessed as increase in ALP expression by measuring increase in ALP-positive cells with purple color at 50 nM measured after 2 days by ALP staining based analysis. The class given is functional, cell-based. The conditions noted are these: time 2.0 day.
Data set [10] has as its system Mus musculus. In words: Anti-osteoporosis activity in ovariectomized C57BL/6J mouse model assessed as increase in trabecular number in femur at 20 microg/kg, sc administered 3 times a week for 8 weeks by micro-CT analysis. The class given is functional, organism-based. The conditions noted are these: dose 20.0 µg/kg.
Data set [11] can be described thus: Cytotoxicity against C57BL/6 mouse Pre-Osteoblast cells assessed as cell death upto 5 uM incubated for 4 days by CCK-8 assay. The data set is classed as toxicity, cell-based. The conditions noted are these: 96 h, time 4 day. (In general: Formazan colour is commonly taken as a measure of viable cells.)
In data set [12] the test system is Pre-Osteoblast. The data set is described as follows: Induction of osteoblast differentiation in C57BL/6 mouse Pre-Osteoblast cells assessed as upregulation of OCN gene expression measured on day 4 and 7 by qPCR analysis. The data set is classed as functional, cell-based. The conditions noted are these: time 4-7 day.
Data set [13] deals with Pre-Osteoblast. In words: Induction of osteoblast differentiation in C57BL/6 mouse Pre-Osteoblast cells assessed as upregulation of Runx2 gene expression measured on day 4 and 7 by qPCR analysis. The data set is classed as functional, cell-based. The conditions noted are these: time 4-7 day.
The test system of data set [14] is Pre-Osteoblast. The data set is described as follows: Induction of osteoblast differentiation in C57BL/6 mouse Pre-Osteoblast cells assessed as upregulation of ALP gene expression measured on day 4 and 7 by qPCR analysis. The class given is functional, cell-based. The conditions noted are these: time 4-7 day. On the technique in general: Quantitative PCR measures a nucleic acid by following its amplification.

A short description of data set [15]: Stability in human serum assessed as compound degradation at 1 mg/ml measured after 12 hrs by HPLC analysis. The class given is ADME, cell-free. The conditions noted are these: read-out: Drug degradation.

Calls of active or inactive are those of the source. The calls are words filed in the database; no cut-off is given here.

In the case of `CC[C@H](C)[C@H](NC(=O)[C@H](CCC(=O)O)NC(=O)[C@H](CO)NC(=O)[C@@H](NC(=O)[C@H](CO)NC(C)=O)C(C)C)C(=O)N[C@@H](CCC(N)=O)C(=O)N[C@@H](CC(C)C)C(=O)N[C@@H](CCSC)C(=O)N[C@@H](Cc1cnc[nH]1)C(=O)N[C@@H](CC(N)=O)C(=O)N[C@@H](CC(C)C)C(=O)NCC(=O)N[C@@H](CCCCN)C(=O)N[C@@H](Cc1cnc[nH]1)C(=O)N[C@@H](CC(C)C)C(=O)N[C@@H](CC(N)=O)C(=O)N[C@@H](CO)C(=O)N[C@@H](CCSC)C(=O)N[C@@H](CCC(=O)O)C(=O)N[C@@H](CCCNC(=N)N[C@@H]1OC[C@@H](O)[C@H](O)[C@H]1O)C(=O)N[C@H](C(=O)N[C@@H](CCC(=O)O)C(=O)N[C@@H](Cc1c[nH]c2ccccc12)C(=O)N[C@@H](CC(C)C)C(=O)N[C@@H](CCCNC(=N)N)C(=O)N[C@@H](CCCCN)C(=O)N[C@@H](CCCCN)C(=O)N[C@@H](CC(C)C)C(=O)N[C@@H](CCC(N)=O)C(=O)N[C@@H](CC(=O)O)C(=O)N[C@H](C(=O)N[C@@H](Cc1cnc[nH]1)C(=O)N[C@@H](CC(N)=O)C(=O)N[C@@H](Cc1ccccc1)C(N)=O)C(C)C)C(C)C`, the remaining at 12 h, 1 mg/ml in [1] is more than 75%. Further, the result in the data set on Pre-Osteoblast [2], with Pre-Osteoblast [6], in the data set with Mus musculus [7], in the data set on Mus musculus [8], in the data set with Pre-Osteoblast [9] and in the data set with Mus musculus [10] was Active. Also, the “fold change (FC)” value in data set [3] came out at 1.29; in data set [4], 1.28; in data set [5] it was 1.04. For the same molecule, the Activity entry in [11] is “Non-Toxic”.
Turning to `CC[C@H](C)[C@H](NC(=O)[C@H](CCC(=O)O)NC(=O)[C@H](CO)NC(=O)[C@@H](NC(=O)[C@H](CO)NC(C)=O)C(C)C)C(=O)N[C@@H](CCC(N)=O)C(=O)N[C@@H](CC(C)C)C(=O)N[C@@H](CCSC)C(=O)N[C@@H](Cc1cnc[nH]1)C(=O)N[C@@H](CC(N)=O)C(=O)N[C@@H](CC(C)C)C(=O)NCC(=O)N[C@@H](CCCCN)C(=O)N[C@@H](Cc1cnc[nH]1)C(=O)N[C@@H](CC(C)C)C(=O)N[C@@H](CC(N)=O)C(=O)N[C@@H](CO)C(=O)N[C@@H](CCSC)C(=O)N[C@@H](CCC(=O)O)C(=O)N[C@@H](CCCNC(=N)N)C(=O)N[C@H](C(=O)N[C@@H](CCC(=O)O)C(=O)N[C@@H](Cc1c[nH]c2ccccc12)C(=O)N[C@@H](CC(C)C)C(=O)N[C@@H](CCCNC(=N)N[C@@H]1O[C@H](CO)[C@@H](O[C@H]2O[C@H](CO)[C@@H](O)[C@H](O)[C@H]2O)[C@H](O)[C@H]1O)C(=O)N[C@@H](CCCCN)C(=O)N[C@@H](CCCCN)C(=O)N[C@@H](CC(C)C)C(=O)N[C@@H](CCC(N)=O)C(=O)N[C@@H](CC(=O)O)C(=O)N[C@H](C(=O)N[C@@H](Cc1cnc[nH]1)C(=O)N[C@@H](CC(N)=O)C(=O)N[C@@H](Cc1ccccc1)C(N)=O)C(C)C)C(C)C`, the remaining at 12 h, 1 mg/ml in [1] was more than 75%. The result in the data set on Pre-Osteoblast [2], in the data set on Pre-Osteoblast [12], with Pre-Osteoblast [13], with Pre-Osteoblast [6], in the data set with Pre-Osteoblast [14] and in the data set on Mus musculus [7] was Active. Besides, the result with Mus musculus [8], with Pre-Osteoblast [9] and in the data set with Mus musculus [10] was Active. For the same molecule, the figures for the “fold change (FC)” value in data set [3], in data set [4] and in [5] were 1.32, 1.34 and 1.16, respectively. The Activity result in [11] is “Non-Toxic”.
As for `CC[C@H](C)[C@H](NC(=O)[C@H](CCC(=O)O)NC(=O)[C@H](CO)NC(=O)[C@@H](NC(=O)[C@H](CO)NC(C)=O)C(C)C)C(=O)N[C@@H](CCC(N)=O)C(=O)N[C@@H](CC(C)C)C(=O)N[C@@H](CCSC)C(=O)N[C@@H](Cc1cnc[nH]1)C(=O)N[C@@H](CC(N)=O)C(=O)N[C@@H](CC(C)C)C(=O)NCC(=O)N[C@@H](CCCCN)C(=O)N[C@@H](Cc1cnc[nH]1)C(=O)N[C@@H](CC(C)C)C(=O)N[C@@H](CC(N)=O)C(=O)N[C@@H](CO)C(=O)N[C@@H](CCSC)C(=O)N[C@@H](CCC(=O)O)C(=O)N[C@@H](CCCNC(=N)N)C(=O)N[C@H](C(=O)N[C@@H](CCC(=O)O)C(=O)N[C@@H](Cc1c[nH]c2ccccc12)C(=O)N[C@@H](CC(C)C)C(=O)N[C@@H](CCCNC(=N)N)C(=O)N[C@@H](CCCCN)C(=O)N[C@@H](CCCCN)C(=O)N[C@@H](CC(C)C)C(=O)N[C@@H](CCC(N)=O)C(=O)N[C@@H](CC(=O)O)C(=O)N[C@H](C(=O)N[C@@H](Cc1cnc[nH]1)C(=O)N[C@@H](CC(N)=O)C(=O)N[C@@H](Cc1ccccc1)C(N)=O)C(C)C)C(C)C`, the “fold change (FC)” value was found to be 1.23 in data set [3], 1.05 in data set [4] and 1.04 in [5]. Besides, the metabolised at 12 h, 1 mg/ml in data set [15] is more than 50%. Further, the Activity entry in data set [11] was “Non-Toxic”.
In the case of `CC[C@H](C)[C@H](NC(=O)[C@H](CCC(=O)O)NC(=O)[C@H](CO)NC(=O)[C@@H](NC(=O)[C@H](CO)NC(C)=O)C(C)C)C(=O)N[C@@H](CCC(N)=O)C(=O)N[C@@H](CC(C)C)C(=O)N[C@@H](CCSC)C(=O)N[C@@H](Cc1cnc[nH]1)C(=O)N[C@@H](CC(N)=O)C(=O)N[C@@H](CC(C)C)C(=O)NCC(=O)N[C@@H](CCCCN)C(=O)N[C@@H](Cc1cnc[nH]1)C(=O)N[C@@H](CC(C)C)C(=O)N[C@@H](CC(N)=O)C(=O)N[C@@H](CO)C(=O)N[C@@H](CCSC)C(=O)N[C@@H](CCC(=O)O)C(=O)N[C@@H](CCCNC(=N)N[C@@H]1O[C@H](CO)[C@@H](O)[C@H](O)[C@H]1NC(C)=O)C(=O)N[C@H](C(=O)N[C@@H](CCC(=O)O)C(=O)N[C@@H](Cc1c[nH]c2ccccc12)C(=O)N[C@@H](CC(C)C)C(=O)N[C@@H](CCCNC(=N)N)C(=O)N[C@@H](CCCCN)C(=O)N[C@@H](CCCCN)C(=O)N[C@@H](CC(C)C)C(=O)N[C@@H](CCC(N)=O)C(=O)N[C@@H](CC(=O)O)C(=O)N[C@H](C(=O)N[C@@H](Cc1cnc[nH]1)C(=O)N[C@@H](CC(N)=O)C(=O)N[C@@H](Cc1ccccc1)C(N)=O)C(C)C)C(C)C`, in data set [11], the Activity result was “Non-Toxic”.
